# According to patent US11324237B2, “Tasteful natural sweetener and flavor” (EPC Natural Products Co., Ltd., priority 2018, dated 2022):
# Entries after “also recorded” stand apart in the source; their conditions may differ.
# Assays:
# [1] = relative to sugar; cited from earlier work
# [2] = Stevia-derived MRPs with NHDC and thaumatin, alone and in Redbull sugar free (Example 240); format: in vivo, human; settings: added before heating to stevia derived MRP; 150 μl in 100 ml Redbull sugar free
# Protocol: 150 μl of the each sample was added to 100 ml Redbull sugar free and mixed. The taste profiles of the samples were compared. As a control, a RedBull sugar free sample without the addition of SteviAroma was used.
# Before tasting the tasters discussed the upcoming series of samples and tasted samples with predetermined attributes with varying intensities to find a commonality in description. Four trained tasters blind taste tested independently all samples of a series. They were allowed to re-taste and made notes for the sensory attributes perceived including the relative intensity.
# In the last step the attributes noted were discussed openly to find an acceptable description. In case that more than 1 taster disagreed with the description, the tasting was repeated.
# [3] = Sensory evaluation of combinations of EPCalin, GSGs and SGs and NHDC in water (Example 234); format: in vivo, human; settings: 4.5 ppm Thaumatin and/or 50 ppm GSGs and SGs
# Protocol: 4.5 ppm Thaumatin (equivalent to 10 ppm EPCalin) were dissolved in water. Increasing amounts of NHDC (1-5 ppm) were added to the solution and the sensory properties were evaluated.
# 50 ppm (GSGs and SGs) were dissolved in water. Increasing amounts of NHDC (1-5 ppm) were added to the solution and the sensory properties were evaluated.
# 50 ppm (GSGs and SGs) and 4.5 ppm Thaumatin (equivalent to 10 ppm EPCalin) were dissolved in water. Increasing amounts of NHDC (1-5 ppm) were added to the solution and the sensory properties were evaluated.
# Sweetness Intensity was Rated on 5-Point Scale
# [4] = Assay to test Reducing Power (iron-III reduction test for anti-oxidant potential); settings: combinations of amino acids and Reb-A, 10 mM, pH 7.8, 100° C., diluted 1:10 (FIG. 49)
# Protocol: 0.2 M Sodium phosphate buffer, pH=6.6; 500 mg Potassium ferric(III)cyanide/50 mL water, 10% Trichloroacetic acid; 20 mg Iron-III-Chloride/20 mL water; Calibration samples were prepared with Ascorbic acid in a concentration of 0-100 μg/mL 0.2 M Sodium phosphate buffer, pH=6.6 (freshly prepared); as negative control sample water was used.
# Samples in aqueous solution were used as such or diluted in 0.2 M Sodium phosphate buffer, pH=6.6.
# A 1 mL sample (or calibration standard) was mixed with 1 mL 0.2 M Sodium phosphate buffer, pH=6.6 and 1 mL Potassium ferricyanide solution. The sample was incubated and protected from light at 50° C. for 20 min.
# To the solution was added 1 mL Trichloroacetic acid with thorough mixing.
# A 1 mL of the mixture was diluted with 1 mL H2O and 0.2 mL Iron-Ill-chloride and reacted for 10 minutes; The absorbance was then determined at 700 nm against H2O.
# 10 mM of amino acid and/or 10 mM sugar were dissolved in 10 ml 0.1 mM KH2PO4-buffer, pH=7.8. […]
# 1 ml sample (or calibration standard) solution) was mixed with 0.2 M Sodium phosphate buffer (pH=6.6) and 1 ml Potassium ferric(III)cyanide solution in water (1% w/v) and incubated at 50° C. for 20 minutes. […] The sample was incubated for 10 minutes and absorbance read at 700 nm against a water control. […]
# Quantification was performed by linear regression of calibration test results for ascorbic acid. […]
# [5] = Assay to test DPPH radical-scavenging activity; settings: combinations of amino acids and Reb-A, 10 mM, pH 7.8, 100° C., diluted 1:10 (FIG. 50)
# Protocol: 1 mg 1,1-Diphenyl-2-picrylhydrazyl radical (DPPH)/ml ethanol, dilution to assay concentration were prepared in ethanol (40 μg/mL); Calibration samples were prepared with Ascorbic acid in a concentration of 0-10 μg/mL; as a negative control sample, water was used.
# Samples in aqueous solution were used as such or diluted with water.
# A 0.1 ml sample (or calibration standard) was mixed with 3.9 ml solution of DPPH° (100 μMolar) and reacted while protected from light at room temperature for 30 min. Absorbance was determined at 517 nm against ethanol.
# 10 mM of amino acid and/or 10 mM sugar were dissolved in 10 ml 0.1 mM KH2PO4-buffer, pH=7.8.
# The samples were kept at 100° C. in sealed glass vials (Pyrex 15 ml with screw caps) for 0 (before reaction), 2.5 or 5.0 hours. Thereafter the samples were transferred to an ice water bath and cooled down to room temperature. These samples were diluted 1:10 and used for the test assay for anti-oxidant potential. […]
# 0.2 ml sample (or calibration standard) solution was mixed with 0.2 ml solution of DPPH® (0.1 mM) and 3.6 ml methanol. […] After 3 minutes the absorbance at 517 nm was obtained against ethanol. Quantification was performed by linear regression of calibration test results for ascorbic acid. […]
structure (smiles),measurement,setting,value
OC[C@@H](O)[C@@H](O)[C@H](O)[C@H](O)CO [D-mannitol],natural sweetness,[1],0.55-0.65 times of that of sugar
"COc1ccc(CCC(=O)c2c(O)cc(O[C@@H]3O[C@H](CO)[C@@H](O)[C@H](O)[C@H]3O[C@@H]3O[C@@H](C)[C@H](O)[C@@H](O)[C@H]3O)cc2O)cc1O [NHDC, Neohesperidin dihydrochalcone]",taste profile in sugarfree beverage,[2],improved the mouth-feel and harmony of taste impression yielding a substantially improved taste profile
same,sensory properties of combinations with NHDC,[3],long lasting lingering; also recorded: boosts the lingering
"C=C1C[C@@]23CC[C@H]4[C@@](C)(CCC[C@@]4(C)C(=O)O[C@@H]4O[C@H](CO)[C@@H](O)[C@H](O)[C@H]4O)[C@@H]2CC[C@]1(O[C@@H]1O[C@H](CO)[C@@H](O)[C@H](O[C@@H]2O[C@H](CO)[C@@H](O)[C@H](O)[C@H]2O)[C@H]1O[C@@H]1O[C@H](CO)[C@@H](O)[C@H](O)[C@H]1O)C3 [Reb-A, Rebaudioside A]",active iron-III reduction (anti-oxidant properties),[4],substantial anti-oxidant properties
same,radical scavenging properties (anti-oxidant properties),[5],substantial anti-oxidant properties
C[C@H](CC[C@@H](O[C@@H]1O[C@H](CO)[C@@H](O)[C@H](O)[C@H]1O[C@@H]1O[C@H](CO)[C@@H](O)[C@H](O)[C@H]1O)C(C)(C)O)[C@H]1CC[C@@]2(C)[C@H]3CC=C4[C@@H](CC[C@H](O[C@@H]5O[C@H](CO[C@@H]6O[C@H](CO)[C@@H](O)[C@H](O)[C@H]6O)[C@@H](O)[C@H](O)[C@H]5O)C4(C)C)[C@]3(C)[C@H](O)C[C@]12C [mogroside IV],natural sweetness,[1],126 times of that of sugar
C[C@H](CC[C@@H](O[C@@H]1O[C@H](CO[C@@H]2O[C@H](CO)[C@@H](O)[C@H](O)[C@H]2O)[C@@H](O)[C@H](O)[C@H]1O[C@@H]1O[C@H](CO)[C@@H](O)[C@H](O)[C@H]1O)C(C)(C)O)[C@H]1CC[C@@]2(C)[C@@H]3CC=C4[C@@H](CC[C@H](O[C@@H]5O[C@H](CO[C@@H]6O[C@H](CO)[C@@H](O)[C@H](O)[C@H]6O)[C@@H](O)[C@H](O)[C@H]5O)C4(C)C)[C@]3(C)[C@H](O)C[C@]12C [mogroside V],natural sweetness,[1],256-344 times of that of sugar
